Laboratory results as given in ChEMBL document CHEMBL5543146 (J Med Chem, 2024).

What was measured:
[1] = target: T1, Fibroblast growth factor receptor 4 (Homo sapiens, UniProt P22455); test: Inhibition of N-terminal GST tagged cytoplasmic domain human FGFR4 (460 to 802 residues) expressed in Escherichia coli BL21 (DE3) using CSox as substrate incubated for 240 mins in presence of ATP by hotspot assay
Target sequence in this assay (P22455 whole entry, the tested form may be a part): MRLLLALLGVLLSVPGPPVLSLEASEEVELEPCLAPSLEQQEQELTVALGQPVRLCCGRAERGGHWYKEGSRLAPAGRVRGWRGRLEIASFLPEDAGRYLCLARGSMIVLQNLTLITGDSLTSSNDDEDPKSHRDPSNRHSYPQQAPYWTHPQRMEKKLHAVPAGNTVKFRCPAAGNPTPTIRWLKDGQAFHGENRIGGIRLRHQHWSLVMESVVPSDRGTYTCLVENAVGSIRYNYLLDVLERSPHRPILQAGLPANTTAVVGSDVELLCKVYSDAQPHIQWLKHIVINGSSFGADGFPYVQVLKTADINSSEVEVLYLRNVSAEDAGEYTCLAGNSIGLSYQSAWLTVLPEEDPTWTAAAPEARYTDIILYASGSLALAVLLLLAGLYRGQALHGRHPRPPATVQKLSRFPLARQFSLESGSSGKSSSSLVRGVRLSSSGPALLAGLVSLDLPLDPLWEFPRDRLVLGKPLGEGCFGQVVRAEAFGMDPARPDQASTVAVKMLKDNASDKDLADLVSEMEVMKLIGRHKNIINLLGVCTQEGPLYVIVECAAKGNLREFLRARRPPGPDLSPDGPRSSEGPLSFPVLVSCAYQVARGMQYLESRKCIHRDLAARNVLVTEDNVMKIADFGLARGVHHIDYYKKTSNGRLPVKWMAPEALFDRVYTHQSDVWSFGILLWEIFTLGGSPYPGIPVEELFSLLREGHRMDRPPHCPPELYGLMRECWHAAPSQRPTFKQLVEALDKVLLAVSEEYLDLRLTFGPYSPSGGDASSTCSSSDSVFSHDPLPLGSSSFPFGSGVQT

[2] = target: T1, Fibroblast growth factor receptor 4; test: Inhibition of N-terminal GST tagged cytoplasmic domain human FGFR4 (460 to 802 residues) expressed in Escherichia coli BL21 (DE3) using CSox as substrate assessed as residual activity at 5 uM incubated for 240 mins in presence of ATP by hotspot assay relative to control
Target sequence in this assay (P22455 22-802 limits assumed): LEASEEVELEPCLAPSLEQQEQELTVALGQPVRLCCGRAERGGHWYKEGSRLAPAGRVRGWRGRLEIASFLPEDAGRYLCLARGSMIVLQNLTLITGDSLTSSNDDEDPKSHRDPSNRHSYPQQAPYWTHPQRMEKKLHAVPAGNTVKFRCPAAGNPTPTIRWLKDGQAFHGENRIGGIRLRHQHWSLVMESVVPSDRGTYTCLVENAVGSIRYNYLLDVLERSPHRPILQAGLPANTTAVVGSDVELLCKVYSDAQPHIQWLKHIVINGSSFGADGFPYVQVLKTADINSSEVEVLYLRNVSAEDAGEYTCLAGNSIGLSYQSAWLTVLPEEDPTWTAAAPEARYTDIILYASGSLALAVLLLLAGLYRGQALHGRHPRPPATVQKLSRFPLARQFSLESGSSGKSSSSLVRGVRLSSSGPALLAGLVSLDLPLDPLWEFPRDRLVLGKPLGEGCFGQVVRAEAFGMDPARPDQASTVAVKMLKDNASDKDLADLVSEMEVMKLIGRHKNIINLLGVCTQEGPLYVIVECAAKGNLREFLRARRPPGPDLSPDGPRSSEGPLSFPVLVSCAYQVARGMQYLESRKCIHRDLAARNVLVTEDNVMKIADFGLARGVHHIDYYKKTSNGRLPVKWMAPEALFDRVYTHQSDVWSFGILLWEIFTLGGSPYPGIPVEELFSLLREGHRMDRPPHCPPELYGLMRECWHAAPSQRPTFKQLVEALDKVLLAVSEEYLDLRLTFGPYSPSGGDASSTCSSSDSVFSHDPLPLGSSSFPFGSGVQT

[3] = target: T2, Dual specificity protein kinase TTK (Homo sapiens, UniProt P33981); test: Inhibition of human wild type TTK using RBER-CHKtide as substrate in presence of ATP by hotspot assay
T2 sequence (P33981 whole entry): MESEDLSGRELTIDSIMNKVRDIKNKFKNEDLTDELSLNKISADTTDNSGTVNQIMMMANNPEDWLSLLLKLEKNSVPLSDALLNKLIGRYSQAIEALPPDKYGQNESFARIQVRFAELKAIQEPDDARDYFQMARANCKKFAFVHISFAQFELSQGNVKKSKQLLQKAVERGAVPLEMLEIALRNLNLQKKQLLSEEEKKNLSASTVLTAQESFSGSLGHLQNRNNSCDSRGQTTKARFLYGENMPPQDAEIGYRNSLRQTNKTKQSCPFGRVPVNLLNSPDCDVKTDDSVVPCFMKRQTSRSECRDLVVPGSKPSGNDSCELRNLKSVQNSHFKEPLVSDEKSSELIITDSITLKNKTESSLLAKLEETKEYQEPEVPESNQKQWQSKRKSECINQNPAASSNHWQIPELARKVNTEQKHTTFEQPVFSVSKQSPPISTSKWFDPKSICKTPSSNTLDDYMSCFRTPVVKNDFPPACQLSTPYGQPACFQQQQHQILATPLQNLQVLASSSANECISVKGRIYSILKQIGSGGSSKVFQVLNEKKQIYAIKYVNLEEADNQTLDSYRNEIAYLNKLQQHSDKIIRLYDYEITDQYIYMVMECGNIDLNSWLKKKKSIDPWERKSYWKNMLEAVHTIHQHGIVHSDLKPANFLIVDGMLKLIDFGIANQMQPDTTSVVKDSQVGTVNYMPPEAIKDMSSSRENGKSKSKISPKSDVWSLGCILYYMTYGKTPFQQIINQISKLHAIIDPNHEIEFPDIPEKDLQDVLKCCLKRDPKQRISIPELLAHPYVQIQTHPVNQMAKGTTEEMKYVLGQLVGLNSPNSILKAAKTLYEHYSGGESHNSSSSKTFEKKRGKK

[4] = target: T1, Fibroblast growth factor receptor 4; test: Inhibition of N-terminal GST tagged cytoplasmic domain human FGFR4 (460 to 802 residues) expressed in Escherichia coli BL21 (DE3) by phosphosen-csox based assay
Target sequence in this assay (P22455 whole entry, the tested form may be a part): as the sequence (P22455 whole entry, the tested form may be a part) above

[5] = target: T3, Fibroblast growth factor receptor 1 (Homo sapiens, UniProt P11362); test: Inhibition of human FGFR1 using poly[Glu:Tyr] (4:1) as substrate in presence of ATP by hotspot assay
T3 sequence (P11362 whole entry): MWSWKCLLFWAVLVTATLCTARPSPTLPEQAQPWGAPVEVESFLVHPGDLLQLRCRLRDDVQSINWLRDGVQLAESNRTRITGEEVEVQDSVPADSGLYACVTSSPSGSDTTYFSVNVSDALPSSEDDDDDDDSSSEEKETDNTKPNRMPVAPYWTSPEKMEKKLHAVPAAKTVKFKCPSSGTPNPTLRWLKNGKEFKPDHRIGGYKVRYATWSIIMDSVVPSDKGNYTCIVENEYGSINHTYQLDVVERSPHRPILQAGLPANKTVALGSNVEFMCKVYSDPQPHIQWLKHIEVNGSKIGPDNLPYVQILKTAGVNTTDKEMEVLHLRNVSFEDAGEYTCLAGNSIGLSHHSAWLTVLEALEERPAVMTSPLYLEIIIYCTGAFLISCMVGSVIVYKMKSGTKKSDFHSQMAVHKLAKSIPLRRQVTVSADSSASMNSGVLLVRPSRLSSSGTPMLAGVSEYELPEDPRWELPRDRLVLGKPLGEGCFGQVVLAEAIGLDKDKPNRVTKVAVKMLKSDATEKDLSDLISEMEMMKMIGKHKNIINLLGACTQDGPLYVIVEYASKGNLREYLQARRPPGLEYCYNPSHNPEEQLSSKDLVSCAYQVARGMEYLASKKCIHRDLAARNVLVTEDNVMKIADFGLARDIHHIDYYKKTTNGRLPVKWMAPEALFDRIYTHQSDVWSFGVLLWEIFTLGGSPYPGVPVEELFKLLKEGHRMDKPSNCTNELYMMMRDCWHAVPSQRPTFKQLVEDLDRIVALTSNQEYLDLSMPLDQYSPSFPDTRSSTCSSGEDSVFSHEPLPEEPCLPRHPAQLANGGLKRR

[6] = target: T4, Fibroblast growth factor receptor 2 (Homo sapiens, UniProt P21802); test: Inhibition of human FGFR2 in presence of ATP by hotspot assay
T4 sequence (P21802 whole entry): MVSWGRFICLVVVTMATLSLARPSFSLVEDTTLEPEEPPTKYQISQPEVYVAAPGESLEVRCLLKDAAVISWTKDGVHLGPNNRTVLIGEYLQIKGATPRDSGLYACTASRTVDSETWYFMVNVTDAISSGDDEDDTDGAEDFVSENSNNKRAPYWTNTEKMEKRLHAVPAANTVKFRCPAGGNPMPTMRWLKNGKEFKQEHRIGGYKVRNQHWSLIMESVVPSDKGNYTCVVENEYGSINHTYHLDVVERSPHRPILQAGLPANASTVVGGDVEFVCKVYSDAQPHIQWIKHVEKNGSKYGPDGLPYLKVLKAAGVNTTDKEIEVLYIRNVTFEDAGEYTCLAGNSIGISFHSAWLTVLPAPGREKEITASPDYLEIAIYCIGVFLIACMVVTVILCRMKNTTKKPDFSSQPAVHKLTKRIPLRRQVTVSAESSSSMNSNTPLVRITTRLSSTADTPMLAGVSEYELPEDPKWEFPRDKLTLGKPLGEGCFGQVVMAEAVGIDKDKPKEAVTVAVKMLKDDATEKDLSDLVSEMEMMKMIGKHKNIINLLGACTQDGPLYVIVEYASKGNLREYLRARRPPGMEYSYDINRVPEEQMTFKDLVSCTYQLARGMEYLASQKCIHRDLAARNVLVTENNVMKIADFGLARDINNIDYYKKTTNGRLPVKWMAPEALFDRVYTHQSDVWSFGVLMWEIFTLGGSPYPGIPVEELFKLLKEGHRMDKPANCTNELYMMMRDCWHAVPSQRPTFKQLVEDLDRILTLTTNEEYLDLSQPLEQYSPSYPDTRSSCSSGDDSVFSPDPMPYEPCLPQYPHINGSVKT

[7] = target: T5, Fibroblast growth factor receptor 3 (Homo sapiens, UniProt P22607); test: Inhibition of human wild type FGFR3 using polyEY as substrate in presence of ATP by hotspot assay
Target sequence in this assay (P22607 whole entry): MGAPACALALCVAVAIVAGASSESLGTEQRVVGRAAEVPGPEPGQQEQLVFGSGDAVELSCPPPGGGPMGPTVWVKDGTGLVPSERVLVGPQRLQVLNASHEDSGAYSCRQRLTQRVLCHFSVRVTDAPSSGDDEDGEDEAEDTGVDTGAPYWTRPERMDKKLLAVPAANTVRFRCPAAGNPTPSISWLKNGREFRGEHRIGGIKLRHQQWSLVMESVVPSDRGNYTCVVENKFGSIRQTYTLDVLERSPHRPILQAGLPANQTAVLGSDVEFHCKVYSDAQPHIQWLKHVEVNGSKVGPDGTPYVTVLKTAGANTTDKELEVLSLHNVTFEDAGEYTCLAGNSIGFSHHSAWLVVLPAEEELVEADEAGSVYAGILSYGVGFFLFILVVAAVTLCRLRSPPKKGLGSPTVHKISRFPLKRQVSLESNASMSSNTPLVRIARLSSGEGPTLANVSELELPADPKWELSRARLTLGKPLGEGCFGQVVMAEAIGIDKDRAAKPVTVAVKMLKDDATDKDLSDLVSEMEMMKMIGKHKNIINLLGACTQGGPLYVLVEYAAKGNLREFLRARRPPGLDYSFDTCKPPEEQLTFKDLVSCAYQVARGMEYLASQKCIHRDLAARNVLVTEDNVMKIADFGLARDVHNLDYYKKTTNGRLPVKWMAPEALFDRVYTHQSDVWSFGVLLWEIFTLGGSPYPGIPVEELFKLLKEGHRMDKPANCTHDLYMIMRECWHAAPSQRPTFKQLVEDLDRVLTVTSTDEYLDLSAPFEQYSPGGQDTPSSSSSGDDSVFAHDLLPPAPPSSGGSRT

[8] = target: Ribosomal protein S6 kinase beta-2 (Homo sapiens, UniProt Q9UBS0); test: Inhibition of human wild type S6K2 using RBER-CHKtide as substrate in presence of ATP by hotspot assay
Sequence of Ribosomal protein S6 kinase beta-2 (Q9UBS0 whole entry): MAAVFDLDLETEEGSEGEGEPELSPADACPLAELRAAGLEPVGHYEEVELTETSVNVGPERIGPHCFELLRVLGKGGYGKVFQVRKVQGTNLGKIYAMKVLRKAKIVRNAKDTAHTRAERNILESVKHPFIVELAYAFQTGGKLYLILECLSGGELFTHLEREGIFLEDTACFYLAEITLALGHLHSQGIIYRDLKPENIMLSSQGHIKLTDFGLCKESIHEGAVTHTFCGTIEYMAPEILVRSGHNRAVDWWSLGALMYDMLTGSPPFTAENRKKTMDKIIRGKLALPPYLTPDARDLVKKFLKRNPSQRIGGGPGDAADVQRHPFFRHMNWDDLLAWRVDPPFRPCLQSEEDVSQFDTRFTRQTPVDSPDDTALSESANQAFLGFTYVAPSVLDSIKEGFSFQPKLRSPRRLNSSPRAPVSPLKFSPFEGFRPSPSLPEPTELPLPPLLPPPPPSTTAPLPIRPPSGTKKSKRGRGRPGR

[9] = target: MAP kinase-activated protein kinase 2 (Homo sapiens, UniProt P49137); test: Inhibition of human MAPKAPK2 using KKLNRTLSVA as substrate in presence of ATP by hotspot assay
[10] = target: MAP kinase-activated protein kinase 3 (Homo sapiens, UniProt Q16644); test: Inhibition of human MAPKAPK3 using KKLNRTLSVA as substrate in presence of ATP by hotspot assay
Sequence of MAP kinase-activated protein kinase 3 (Q16644 whole entry, the tested form may be a part): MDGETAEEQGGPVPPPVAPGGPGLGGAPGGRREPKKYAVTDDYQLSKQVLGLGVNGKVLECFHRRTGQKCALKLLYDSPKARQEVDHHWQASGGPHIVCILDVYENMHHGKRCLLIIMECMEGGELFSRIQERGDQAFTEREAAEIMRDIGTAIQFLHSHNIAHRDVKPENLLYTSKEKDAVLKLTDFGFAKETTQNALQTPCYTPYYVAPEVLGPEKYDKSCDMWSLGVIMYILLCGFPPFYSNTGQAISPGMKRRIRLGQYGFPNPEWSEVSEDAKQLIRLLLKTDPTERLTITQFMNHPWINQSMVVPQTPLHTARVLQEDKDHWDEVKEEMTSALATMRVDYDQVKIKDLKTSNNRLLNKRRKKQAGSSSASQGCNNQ

[11] = target: T1, Fibroblast growth factor receptor 4; test: Binding affinity to N-terminal GST tagged cytoplasmic domain human FGFR4 (460 to 802 residues) expressed in Escherichia coli BL21 (DE3) assessed as inhibition constant using sox as substrate incubated for 30 mins followed by enzyme addition and measured after 120 mins in presence of ATP by PhosphoSens CSox-based continuous assay
Target sequence in this assay (P22455 whole entry, the tested form may be a part): as the sequence (P22455 whole entry, the tested form may be a part) above

[12] = target: T3, Fibroblast growth factor receptor 1; test: Inhibition of full length nanoluc-fused FGFR1 transfected in HEK293T cells assessed as target engagement incubated for 3 hrs in presence of K10 tracer by Nano BRET assay; format: cell-based
[13] = target: T4, Fibroblast growth factor receptor 2; test: Inhibition of full length nanoluc-fused FGFR2 transfected in HEK293T cells assessed as target engagement incubated for 3 hrs in presence of K10 tracer by Nano BRET assay; format: cell-based
[14] = target: T5, Fibroblast growth factor receptor 3; test: Inhibition of full length nanoluc-fused FGFR3 transfected in HEK293T cells assessed as target engagement incubated for 3 hrs in presence of K10 tracer by Nano BRET assay; format: cell-based
Target sequence in this assay (P22607 whole entry): as the sequence (P22607 whole entry) above

[15] = target: T1, Fibroblast growth factor receptor 4; test: Inhibition of full length nanoluc-fused FGFR4 transfected in HEK293T cells assessed as target engagement incubated for 3 hrs in presence of K10 tracer by Nano BRET assay; format: cell-based
Target sequence in this assay (P22455 whole entry, the tested form may be a part): as the sequence (P22455 whole entry, the tested form may be a part) above

Hep 3B2 = test: cells; conditions: Homo sapiens, Hep3B, 96 h
Description: Antiproliferative activity against human Hep3B cells measured after 4 days by Celltiter-glo based luminescent assay

[16] = target: T5, Fibroblast growth factor receptor 3; test: Binding affinity to FGFR3 (unknown origin) assessed as change in melting temperature by differential scanning fluorimetry analysis
[17] = Metabolic stability in human liver microsomes assessed as compound remaining measured after 2 hrs in presence of NADPH regenerating system measured upto 120 mins by LC-MS analysis; format: ADME, Microsome; conditions: read-out: Stability

## COc1cc(OC)cc(-c2ccc3nc(Sc4nc(Cl)ncc4F)ncc3c2)c1
[1]
  IC50: > 5 µM
[2]
  Activity: 96.5%

## COc1cc(OC)cc(-c2ccc3nc(Nc4nc(C)ccc4[N+](=O)[O-])ncc3c2)c1
[1]
  IC50: > 5 µM
[2]
  Activity: 53.6%

## COc1cc(OC)cc(-c2ccc3nc(Sc4nc(Cl)ccc4[N+](=O)[O-])ncc3c2)c1
[1]
  IC50: 4.45 µM

## COc1cc(OC)cc(-c2ccc3nc(Nc4nc(Cl)ccc4[N+](=O)[O-])ncc3c2)c1
[3]
  IC50: > 5 µM
[1]
  IC50: < 0.0005 µM
[4]
  IC50: 4.5 nM
[5]
  IC50: > 5 µM
[6]
  IC50: > 5000 nM
[7]
  IC50: > 5 µM
[8]
  IC50: 4.48 nM
[9]
  IC50: > 5 µM
[10]
  IC50: > 5 µM
[11]
  Ki: 37.9 nM
[12]
  EC50: > 10 µM
[13]
  EC50: > 10000 nM
[14]
  EC50: > 10000 nM
[15]
  EC50: 30 nM
Hep 3B2
  EC50: 5 nM

## COc1cc(OC)c(Cl)c(-c2ccc3ncncc3c2)c1Cl
[1]
  IC50: 2.09 µM

## COc1cc(OC)cc(-c2ccc3nc(Sc4ncccc4[N+](=O)[O-])ncc3c2)c1
[1]
  IC50: > 5 µM
[2]
  Activity: 97.9%

## COc1cc(OC)cc(-c2ccc3nc(Sc4ccnc(F)n4)ncc3c2)c1
[1]
  IC50: > 5 µM
[2]
  Activity: > 100%

## COc1cc(OC)c(Cl)c(-c2ccc3nc(Nc4nc(Cl)ccc4[N+](=O)[O-])ncc3c2)c1Cl
[3]
  IC50: > 5 µM
[1]
  IC50: < 0.0005 µM
[4]
  IC50: 1.2 nM
[6]
  IC50: 490 nM
[7]
  IC50: > 5 µM
[8]
  IC50: 18.2 nM
[11]
  Ki: 5.7 nM
[13]
  EC50: 1290 nM
[14]
  EC50: 1430 nM
[15]
  EC50: 52 nM

## C=CC(=O)Nc1cccc(C)c1Nc1ncc2cc(-c3c(Cl)c(OC)cc(OC)c3Cl)ccc2n1
[12]
  EC50: 4.26 µM
[13]
  EC50: 3300 nM
[14]
  EC50: 2240 nM
Hep 3B2
  EC50: 62 nM

## COc1cc(OC)cc(-c2ccc3ncncc3c2)c1
[1]
  IC50: > 5 µM
[2]
  Activity: 93.1%

## COc1cc(OC)c(Cl)c(-c2ccc3nc(Nc4ncccc4[N+](=O)[O-])ncc3c2)c1Cl
[1]
  IC50: 1.7 µM
[2]
  Activity: 89.4%
[16]
  ΔTm: 4.5 °C
[12]
  EC50: 0.867 µM
[13]
  EC50: 867 nM
[14]
  EC50: 1780 nM
[15]
  EC50: 2260 nM
[17]
  remaining at 2 h: > 80%
Hep 3B2
  EC50: 1070 nM

## COc1cc(OC)cc(-c2ccc3nc(-c4cccc5cnc(Cl)nc45)ncc3c2)c1
[1]
  IC50: > 5 µM
[2]
  Activity: 96.5%

## COc1cc(OC)cc(-c2ccc3nc(Nc4ncccc4[N+](=O)[O-])ncc3c2)c1
[1]
  IC50: > 5 µM
[2]
  Activity: 92.1%

## COc1cc(OC)cc(-c2ccc3nc(-n4ccc5cnc(Cl)nc54)ncc3c2)c1
[1]
  IC50: > 5 µM

## COc1cc(OC)cc(-c2ccc3nc(Sc4ccnc(Cl)n4)ncc3c2)c1
[1]
  IC50: > 5 µM
[2]
  Activity: 82.6%
